The text below walks through data of publication PMC7955127, “Preclinical small molecule WEHI-7326 overcomes drug resistance and elicits response in patient-derived xenograft models of human treatment-refractory tumors” (Cell Death & Disease, 2021).

Experiment [1] relates to COG-N-496x neuroblastoma PDX. Nature of the experiment: High-risk neuroblastoma PDX COG-N-496x. The format is in vivo, NSG mice. Particulars: COG-N-496x PDX; vincristine 0.5 mg/kg i.p. once weekly. The method, then:
(§1) All animal studies were performed in accordance with the guidelines approved by University of New South Wales Animal Care and Ethics Committee (ACEC 17/53B) and in accordance with the requirements of the Australian Code for the Care and Use of Animals for Scientific Purposes. PDX models COG-N-440x and COG-N-496x were obtained from the Childhood Cancer Repository, Texas Tech University Health Sciences Center in Lubbock, TX, USA. 6–8 week old female NSG mice were engrafted by subcutaneous injection with 1 × 10^6 freshly thawed PDX tumor cells into one flank in a mixture of 100 μl RPMI-1640 and 100 μl Matrigel. Mice were monitored for tumor development three times weekly and tumor size measured using digital Vernier calipers. Treatments commenced when tumors reached 50 mm^3, following randomization into treatment arms. […] Mice were treated with either vincristine (0.5 mg/kg, once weekly i.p. in sterile saline for up to 5 weeks), WEHI-7326 (20 mg/kg; twice weekly i.v. in sterile saline for up to 5 weeks) or vehicle (as for WEHI-7326). For the Th-MYCN transgenic mouse model, spontaneous tumor growth in mice homozygous for the MYCN transgene was assessed by abdominal palpation at least twice a week. Treatments commenced once a small palpable tumor (~5 mm) was detected, following randomization to treatment arms. Mice were euthanized upon detection of an abdominal tumor of ~1 cm in diameter. […]

Experiment [2] deals with COG-N-440x neuroblastoma PDX. Nature of the experiment: High-risk neuroblastoma PDX COG-N-440x. The format is in vivo, NSG mice. The note with it: COG-N-440x PDX; vincristine 0.5 mg/kg i.p. once weekly. Here is the method: as §1

`CC[C@]1(O)C[C@H]2CN(CCc3c([nH]c4ccccc34)[C@@](C(=O)OC)(c3cc4c(cc3OC)N(C=O)[C@H]3[C@@](O)(C(=O)OC)[C@H](OC(C)=O)[C@]5(CC)C=CCN6CC[C@]43[C@@H]65)C2)C1` [vincristine, reference compound]: the Efficacy entry in experiment [1] and in experiment [2] was “entirely ineffective” each time.
